Results on 19 compounds are retold here after ChEMBL document CHEMBL1136993, “Efficient chemoenzymatic synthesis, cytotoxic evaluation, and SAR of epoxysterols” (J Med Chem, 2009).

One assay concerns HT-29. The assay is described as follows: Cytotoxicity against human HT-29 cells after 48 hrs by Alamar Blue assay. Format: functional, cell-based. To be noted: HT-29, 48 h.
A further assay deals with LAMA-84. Description: Cytotoxicity against human LAMA-84 cells after 48 hrs by Alamar Blue assay. Format: functional, cell-based. Conditions: LAMA-84, 48 h.
In a further assay the test system is BJ. The assay is described as follows: Cytotoxicity against human BJ cells after 48 hrs by Alamar Blue assay. It counts as cell-based.

`CC(C)CCC[C@@H](C)[C@H]1CC[C@H]2[C@@H]3C[C@@H]4O[C@@]45C[C@@H](O)CC[C@]5(C)[C@H]3CC[C@]12C` returned a half-inhibitory concentration (IC50) in the assay on HT-29 above 50 µM.

Take `CC(C)CCC[C@@H](C)[C@H]1CC[C@H]2[C@@H]3[C@@H](O)[C@H]4O[C@]45C[C@@H](O)CC[C@]5(C)[C@H]3CC[C@]12C`: the half-inhibitory concentration (IC50) in the assay on HT-29 came out at 8.3 µM; in the assay with LAMA-84 it was 7 µM; in the assay on BJ it was 19.5 µM.

Compound `CC(=O)O[C@H]1CC[C@]2(C)[C@H]3CC[C@]4(C)[C@@H]([C@H](C)CCCC(C)C)CC[C@H]4[C@@H]3C[C@H]3O[C@]32[C@H]1O` yielded an IC50 in the assay with HT-29 of 28.2 µM.

For `CC(C)CCC[C@@H](C)[C@H]1CC[C@H]2[C@@H]3CC[C@@]45O[C@@H]4[C@@H](O)CC[C@]5(C)[C@H]3CC[C@]12C`, the IC50 in the assay on HT-29 came out at 61.9 µM.

`CC(C)CCC[C@@H](C)[C@H]1CC[C@H]2[C@@H]3[C@H](O)C=C4C[C@@H](O)CC[C@]4(C)[C@H]3CC[C@]12C`: the IC50 with HT-29 worked out at 15.5 µM.

`CC(C)CCC[C@@H](C)[C@H]1CC[C@H]2[C@@H]3C[C@H]4O[C@]45C[C@@H](O)CC[C@]5(C)[C@H]3CC[C@]12C` displayed an IC50 with HT-29 of 37.6 µM.

In the assay with HT-29, `CC(C)CCC[C@@H](C)[C@H]1CC[C@H]2[C@@H]3[C@H](O)[C@@H]4O[C@@]45C[C@@H](O)CC[C@]5(C)[C@H]3CC[C@]12C` registered an IC50 of 33.8 µM.

In the assay with HT-29, `CC(C)CCC[C@@H](C)[C@H]1CC[C@H]2[C@@H]3CCC4=C[C@@H](O)CC[C@]4(C)[C@H]3CC[C@]12C` displayed an IC50 above 50 µM.

Regarding `CC(C)CCC[C@@H](C)[C@H]1CC[C@H]2[C@@H]3[C@@H](O)C=C4C[C@@H](O)CC[C@]4(C)[C@H]3CC[C@]12C`, the values for the IC50 with HT-29, with LAMA-84 and in the assay with BJ were 6.4 µM, 4.8 µM and 20.1 µM, respectively.

As for `CC(C)CCC[C@@H](C)[C@H]1CC[C@H]2[C@@H]3[C@@H](O)[C@@H]4O[C@@]45C[C@@H](O)CC[C@]5(C)[C@H]3CC[C@]12C`, the half-inhibitory concentration (IC50) was 13.3 µM in the assay on HT-29, 4.1 µM in the assay on LAMA-84 and 13.4 µM in the assay with BJ.

In turn, `CC(C)CCC[C@@H](C)[C@H]1CC[C@H]2[C@@H]3CC=C4[C@@H](O)[C@@H](O)CC[C@]4(C)[C@H]3CC[C@]12C` displayed an IC50 with HT-29 above 50 µM.

On to `CC(C)CCC[C@@H](C)[C@H]1CC[C@H]2[C@@H]3CC=C4C[C@@H](O)CC[C@]4(C)[C@H]3CC[C@]12C` [CHOLESTEROL], for which the IC50 in the assay on HT-29 is above 50 µM.

For the compound `CC(C)CCC[C@@H](C)[C@H]1CC[C@H]2[C@@H]3C[C@H]4O[C@]45[C@@H](O)[C@@H](O)CC[C@]5(C)[C@H]3CC[C@]12C`, the IC50 stood at 17.7 µM in the assay on HT-29, 8 µM in the assay with LAMA-84 and 20.4 µM with BJ.

As for `CC(C)CCC[C@@H](C)[C@H]1CC[C@H]2[C@@H]3C[C@@H]4O[C@@]45[C@@H](O)[C@@H](O)CC[C@]5(C)[C@H]3CC[C@]12C`, the IC50 with HT-29 worked out at 38.2 µM.

In the assay on HT-29, `CC(=O)O[C@H]1CC[C@@]2(C)C(=C[C@H](O)[C@H]3[C@@H]4CC[C@H]([C@H](C)CCCC(C)C)[C@@]4(C)CC[C@@H]32)C1` returned an IC50 of 29.4 µM.

As for `CC(C)CCC[C@@H](C)[C@H]1CC[C@H]2[C@@H]3CC[C@]45O[C@H]4[C@@H](O)CC[C@]5(C)[C@H]3CC[C@]12C`, the figures for the IC50 in the assay with HT-29, in the assay on LAMA-84 and in the assay on BJ were 22.6 µM, 11.2 µM and 31.4 µM, respectively.

Regarding `CC(C)CCC[C@@H](C)[C@H]1CC[C@H]2[C@@H]3[C@@H]4O[C@@]45C[C@@H](O)CC[C@]5(C)[C@H]3CC[C@]12C`, the IC50 in the assay with HT-29 was found to be 40.9 µM.

With `CC(=O)O[C@H]1[C@@H](O)CC[C@]2(C)[C@H]3CC[C@]4(C)[C@@H]([C@H](C)CCCC(C)C)CC[C@H]4[C@@H]3C[C@H]3O[C@@]312`, the IC50 amounted to 15.9 µM in the assay with HT-29 and 8.1 µM in the assay with LAMA-84.

As to `COc1cccc2c1C(=O)c1c(O)c3c(c(O)c1C2=O)C[C@@](O)(C(=O)CO)C[C@@H]3O[C@H]1C[C@H](N)[C@H](O)[C@H](C)O1` [DOXORUBICIN], the IC50 in the assay with HT-29 turned out to be 1.15 µM; in the assay with LAMA-84 it was 0.76 µM; in the assay on BJ, 2.7 µM.
